A short description of data set [1]: Intravenous Toca 511 in Balb/c mice, long-term vector biolocalization study. Format: in vivo. An excerpt: Intravenous injection of Toca 511 into Balb/C mice. 2.35×10̂6 or 2.35×10̂5 TU of Toca 511 was intravenously administered to 8-week-old female Balb/C mice. Approximately 180 days post infection, genomic DNA from various tissues was harvested for bio-locolization study. Genomic DNA from abnormal tissues such as thymus or lymph node was extracted for sequence analysis of the envelope and IRES-yCD2 cassette.
RRV can undergo changes in the length of the oligo adenosine in the A bulge of the EMCV IRES in vivo. […] In a vector biolocalization study conducted as part of a preclinical package to support initiation of clinical trials, Toca 511 was injected intravenously into a permissive mouse strain (Balb/c mice) to evaluate long-term vector bio-localization. […] DNA from the abnormal thymus or lymph nodes of 3 mice were harvested for molecular PCR cloning of proviral sequences, followed by sequencing analysis. One feature was that there were multiple copies of the virus including recombinants with endogenous mouse MCF envelope sequences present, as occurs with lymphomagenesis with ecotropic MLV infection (Fan, 1997). Further analyses are planned for a future publication. […] It appears that the oligo A number drifts preferentially towards longer oligo A in the A bulge. However, the nature of this preference was undefined in the in vivo study.

The subject of the next data set is U87-MG cells. Put plainly: yCD2 protein expression by immunoblot in infected U87-MG cells. Format: cell-based, human. Conditions: fully infected U87-MG cells. As for the experimental part: RRVs containing various numbers of A's in the J-K bifurcation region express similar levels of transcripts but different levels of protein expression. The viral supernatant from HT1080 cells was then used to infect naive U87-MG cells at multiplicity of infection (MOI) of 0.1. At day 10 post infection, when the cells were fully infected, cellular viral RNA levels were measured by quantitative real-time polymerase chain reaction (qRT-PCR), and protein expression level of yCD2 was examined by immunoblotting (Perez et al., 2012). The cellular viral RNA expression levels were measured using two different primer sets, located in the env (5′Env2: 5′-[…]-3′ (SEQ ID NO:47), 3′Env2: 5′-[…]-3′ (SEQ ID NO:48), probe: 5′FAM-[…]-3′BHQ (SEQ ID NO:49)) and in yCD2 region (5′yCD2: 5′-[…]-3′ (SEQ ID NO:50), 3′yCD2: 5′-[…]-3′ (SEQ ID NO:51), probe: 5′FAM-[…]-3′BHQ (SEQ ID NO:52)), respectively, (FIG. 2). The relative level of RNA from each vector was calculated using 2-^ΔΔ(Ct) method with respect to the vector containing the 6As. […] Therefore, the effect of the number of A's in the loop were analyzed with another transgene for which the protein expression assay was well defined. […]
Immunoblot and cell-based yCD2 enzymatic assay. […] Quantity One software (Bio-Rad) was used to quantify the signal of yCD2 and GAPDH detected on the immunoblots. […]
On the technique in general: A western blot detects proteins with antibodies after separation by electrophoresis.

Turning to “Toca 511: RRV with a 7A IRES expressing yCD2 (pAC3-yCD2; SEQ ID NO:22)”, in data set [1] (higher doses, 180 days, depending on the cohort), the “mice with abnormalities in lymphoid tissues” value is listed as 10-20%. The “change of oligo A length in A bulge of integrated proviruses in vivo” value in data set [1] (intravenous, approximately 180 days, abnormal thymus or lymph node) is “heterogeneous expansions of 7A to 8A, 9A, 10A, 11A and 12A and a contraction of 7A to 6A”.

B1: 6A-466: RRV with yCD2 and minimum IRES, 6As, base 183 to 544 of SEQ ID NO:41 (nucleic acid, listed as Encephalomyocarditis virus)
DNA: AGGAAGCAGTTCCTCTGGAAGCTTCTTGAAGACAAACAACGTCTGTAGCGACCCTTTGCAGGCAGCGGAACCCCCCACCTGGCGACAGGTGCCTCTGCGGCCAAAAGCCACGTGTATAAGATACACCTGCAAAGGCGGCACAACCCCAGTGCCACGTTGTGAGTTGGATAGTTGTGGAAAGAGTCAAATGGCTCTCCTCAAGCGTATTCAACAAGGGGCTGAAGGATGCCCAGAAGGTACCCCATTGTATGGGATCTGATCTGGGGCCTCGGTGCACATGCTTTACATGTGTTTAGTCGAGGTTAAAAANCGTCTAGGCCCCCCGAACCACGGGGACGTGGTTTTCCTTTGAAAAACACGAT
modifications: (492)..(492) “n” can be present or absent, if present n is “A”
Turning to B1, in the data set with U87-MG cells, the “yCD2 protein expression in comparison to the 6A variant with full-length IRES” value is “shows expression of yCD2”.

The values are drawn from patent US20160222412A1, “R[…] WITH S[…]-LOOP” (Tocagen Inc., priority 2013, published 2016).
